Assay results from ChEMBL document CHEMBL6087474, “Discovery of an Efficacious RET PROTAC Degrader with Enhanced Antiproliferative Activity against Resistant Cancer Cells Harboring RET Solvent-Front Mutations” (J Med Chem, 2025).

What was measured:
BaF3 [1] = assay: PROTAC activity at CRBN/KIF5B-RET (unknown origin) expressed in mouse BaF3 cells assessed as induction of RET degradation at 10 nM measured after 6 hrs by Western blot analysis relative to control; assay type: cell-based
BaF3 [2] = assay: PROTAC activity at CRBN/KIF5B-RET (unknown origin) expressed in mouse BaF3 cells assessed as induction of RET degradation at 100 nM measured after 6 hrs by Western blot analysis relative to control; assay type: cell-based
BaF3 [3] = assay: PROTAC activity at CRBN/KIF5B-RET (unknown origin) expressed in mouse BaF3 cells assessed as induction of RET degradation at 1000 nM measured after 6 hrs by Western blot analysis relative to control; assay type: cell-based
BaF3 [4] = assay: PROTAC activity at VHL/KIF5B-RET (unknown origin) expressed in mouse BaF3 cells assessed as induction of RET degradation at 10 nM measured after 6 hrs by Western blot analysis relative to control; assay type: cell-based
BaF3 [5] = assay: PROTAC activity at VHL/KIF5B-RET (unknown origin) expressed in mouse BaF3 cells assessed as induction of RET degradation at 100 nM measured after 6 hrs by Western blot analysis relative to control; assay type: cell-based
BaF3 [6] = assay: PROTAC activity at VHL/KIF5B-RET (unknown origin) expressed in mouse BaF3 cells assessed as induction of RET degradation at 1000 nM measured after 6 hrs by Western blot analysis relative to control; assay type: cell-based
BaF3 [7] = assay: Antiproliferative activity against mouse BaF3 cells stably expressing KIF5B-RET-G810C mutant incubated for 72 hrs by CCK-8 assay; assay type: functional, cell-based; details: BaF3, 72 h
BaF3 [8] = assay: Antiproliferative activity against mouse BaF3 cells stably expressing KIF5B-RET-G810R mutant incubated for 72 hrs by CCK-8 assay; assay type: functional, cell-based; details: BaF3, 72 h
BaF3 [9] = assay: Antiproliferative activity against mouse BaF3 cells stably expressing KIF5B-RET-V804L mutant incubated for 72 hrs by CCK-8 assay; assay type: functional, cell-based; details: BaF3, 72 h
BaF3 [10] = assay: Antiproliferative activity against mouse BaF3 cells stably expressing KIF5B-RET-G810S mutant incubated for 72 hrs by CCK-8 assay; assay type: functional, cell-based; details: BaF3, 72 h
BaF3 [11] = assay: Antiproliferative activity against mouse BaF3 cells stably expressing CCDC6-RET-V804M mutant incubated for 72 hrs by CCK-8 assay; assay type: functional, cell-based; details: BaF3, 72 h
BaF3 [12] = assay: Antiproliferative activity against mouse BaF3 cells stably expressing CCDC6-RET-G810C mutant incubated for 72 hrs by CCK-8 assay; assay type: functional, cell-based; details: BaF3, 72 h
BaF3 [13] = assay: Antiproliferative activity against mouse BaF3 cells stably expressing KIF5B-RET fusion protein incubated for 72 hrs by CCK-8 assay; assay type: functional, cell-based; details: BaF3, 72 h
BaF3 [14] = assay: Antiproliferative activity against mouse BaF3 cells stably expressing KIF5B-RET-V804M mutant incubated for 72 hrs by CCK-8 assay; assay type: functional, cell-based; details: BaF3, 72 h
BaF3 [15] = assay: Antiproliferative activity against mouse BaF3 cells stably expressing CCDC6-RET incubated for 72 hrs by CCK-8 assay; assay type: functional, cell-based; details: BaF3, 72 h

Row | SMILES | Activity (BaF3 [1]) | Activity (BaF3 [2]) | Activity (BaF3 [3]) | Activity (BaF3 [4]) | Activity (BaF3 [5]) | Activity (BaF3 [6]) | also measured
1 | COc1ccc(CN2C3CC2CN(c2ccc(-c4cc(-c5cnn(C6CCN(C(=O)CN7CCN(c8ccc9c(c8)C(=O)N(C8CCC(=O)NC8=O)C9=O)CC7)CC6)c5)cn5ncc(C#N)c45)cn2)C3)cn1 (centres undefined) | 37% | 49% | 41% |  |  |  | 
2 | COc1ccc(CN2C3CC2CN(c2ccc(-c4cc(-c5cnn(C6CCN(CCCCC#Cc7cccc8c7CN(C7CCC(=O)NC7=O)C8=O)CC6)c5)cn5ncc(C#N)c45)cn2)C3)cn1 (centres undefined) | 16% | 42% | 48% |  |  |  | 
3 | COc1ccc(CN2C3CC2CN(c2ccc(-c4cc(-c5cnn(CCOCCOCCC(=O)N[C@H](C(=O)N6C[C@H](O)C[C@H]6C(=O)N[C@@H](C)c6ccc(-c7scnc7C)cc6)C(C)(C)C)c5)cn5ncc(C#N)c45)cn2)C3)cn1 |  |  |  | 8% | 1% | -5% | 
4 | COc1ccc(CN2C3CC2CN(c2ccc(-c4cc(-c5cnn(CCCCCCCCC#Cc6cccc7c6CN(C6CCC(=O)NC6=O)C7=O)c5)cn5ncc(C#N)c45)cn2)C3)cn1 (centres undefined) | 17% | 47% | 34% |  |  |  | 
5 | COc1ccc(CN2C3CC2CN(c2ccc(-c4cc(-c5cnn(CCC#Cc6cccc7c6CN(C6CCC(=O)NC6=O)C7=O)c5)cn5ncc(C#N)c45)cn2)C3)cn1 (centres undefined) | 15% | 26% | 25% |  |  |  | 
6 | COc1ccc(CN2C3CC2CN(c2ccc(-c4cc(-c5cnn(CCCCCCC(=O)N[C@H](C(=O)N6C[C@H](O)C[C@H]6C(=O)N[C@@H](C)c6ccc(-c7scnc7C)cc6)C(C)(C)C)c5)cn5ncc(C#N)c45)cn2)C3)cn1 |  |  |  | 16% | 49% | 51% | 
7 | COc1ccc(CN2C3CC2CN(c2ccc(-c4cc(-c5cnn(CCCCC#Cc6cccc7c6CN(C6CCC(=O)NC6=O)C7=O)c5)cn5ncc(C#N)c45)cn2)C3)cn1 (centres undefined) | 19% | 23% | 21% |  |  |  | 
8 | COc1ccc(CN2C3CC2CN(c2ccc(-c4cc(-c5cnn(C6CCN(CCCC#Cc7cccc8c7CN(C7CCC(=O)NC7=O)C8=O)CC6)c5)cn5ncc(C#N)c45)cn2)C3)cn1 (centres undefined) | 19% | 35% | 51% |  |  |  | 
9 | COc1ccc(CN2C3CC2CN(c2ccc(-c4cc(-c5cnn(CCCCCCCCCCC#Cc6cccc7c6CN(C6CCC(=O)NC6=O)C7=O)c5)cn5ncc(C#N)c45)cn2)C3)cn1 (centres undefined) | 15% | 39% | 54% |  |  |  | 
10 | COc1ccc(CN2C3CC2CN(c2ccc(-c4cc(-c5cnn(C6CCN(CC(=O)N7CCN(c8ccc9c(c8)C(=O)N(C8CCC(=O)NC8=O)C9=O)CC7)CC6)c5)cn5ncc(C#N)c45)cn2)C3)cn1 (centres undefined) | 30% | 34% | 32% |  |  |  | 
11 | COc1ccc(CN2C3CC2CN(c2ccc(-c4cc(-c5cnn(CCCCCCCCCCC(=O)N[C@H](C(=O)N6C[C@H](O)C[C@H]6C(=O)N[C@@H](C)c6ccc(-c7scnc7C)cc6)C(C)(C)C)c5)cn5ncc(C#N)c45)cn2)C3)cn1 |  |  |  | 17% | 39% | 32% | 
12 | COc1ccc(CN2C3CC2CN(c2ccc(-c4cc(-c5cnn(C6CCN(CCCCCCC#Cc7cccc8c7CN(C7CCC(=O)NC7=O)C8=O)CC6)c5)cn5ncc(C#N)c45)cn2)C3)cn1 (centres undefined) | 35% | 46% | 47% |  |  |  | 
13 | COc1ccc(CN2C3CC2CN(c2ccc(-c4cc(-c5cnn(CCCCC(=O)N[C@H](C(=O)N6C[C@H](O)C[C@H]6C(=O)N[C@@H](C)c6ccc(-c7scnc7C)cc6)C(C)(C)C)c5)cn5ncc(C#N)c45)cn2)C3)cn1 |  |  |  | -14% | -11% | -11% | 
14 | COc1ccc(CN2C3CC2CN(c2ccc(-c4cc(-c5cnn(C6CCN(CCCCCCCC#Cc7cccc8c7CN(C7CCC(=O)NC7=O)C8=O)CC6)c5)cn5ncc(C#N)c45)cn2)C3)cn1 (centres undefined) | 12% | 16% | 30% |  |  |  | 
15 | COc1ccc(CN2C3CC2CN(c2ccc(-c4cc(-c5cnn(CCCCCCCCCCCCCCC(=O)N[C@H](C(=O)N6C[C@H](O)C[C@H]6C(=O)N[C@@H](C)c6ccc(-c7scnc7C)cc6)C(C)(C)C)c5)cn5ncc(C#N)c45)cn2)C3)cn1 |  |  |  | -6% | 3% | 20% | 
16 | COc1ccc(CN2C3CC2CN(c2ccc(-c4cc(OCC(C)(C)O)cn5ncc(C#N)c45)cn2)C3)cn1 [SELPERCATINIB] |  |  |  |  |  |  | IC50 (BaF3 [7]): 0.69 µM; IC50 (BaF3 [8]): 1.06 µM; IC50 (BaF3 [9]): 0.03 µM; IC50 (BaF3 [10]): 0.57 µM; IC50 (BaF3 [11]): 0.05 µM; IC50 (BaF3 [12]): 0.35 µM
17 | COc1ccc(CN2C3CC2CN(c2ccc(-c4cc(-c5cnn(C6CCN(CCCCCC#Cc7cccc8c7CN(C7CCC(=O)N(C)C7=O)C8=O)CC6)c5)cn5ncc(C#N)c45)cn2)C3)cn1 (centres undefined) |  |  |  |  |  |  | IC50 (BaF3 [13]): 0.02 µM; IC50 (BaF3 [7]): 0.7 µM; IC50 (BaF3 [8]): 1.69 µM; IC50 (BaF3 [14]): 0.07 µM; IC50 (BaF3 [9]): 0.05 µM; IC50 (BaF3 [10]): 0.24 µM; IC50 (BaF3 [15]): 0.01 µM; IC50 (BaF3 [11]): 0.02 µM; IC50 (BaF3 [12]): 0.1 µM
18 | COc1ccc(CN2C3CC2CN(c2ccc(-c4cc(-c5cnn(CCCCCCC#Cc6cccc7c6CN(C6CCC(=O)NC6=O)C7=O)c5)cn5ncc(C#N)c45)cn2)C3)cn1 (centres undefined) | 27% | 31% | 22% |  |  |  | 
19 | COc1ccc(CN2C3CC2CN(c2ccc(-c4cc(-c5cnn(C6CCN(CC#Cc7cccc8c7CN(C7CCC(=O)NC7=O)C8=O)CC6)c5)cn5ncc(C#N)c45)cn2)C3)cn1 (centres undefined) | 9% | 7% | 14% |  |  |  | 
20 | COc1ccc(CN2C3CC2CN(c2ccc(-c4cc(-c5cnn(CCCCCCCCC(=O)N[C@H](C(=O)N6C[C@H](O)C[C@H]6C(=O)N[C@@H](C)c6ccc(-c7scnc7C)cc6)C(C)(C)C)c5)cn5ncc(C#N)c45)cn2)C3)cn1 |  |  |  | 1% | 34% | 39% | 
